Tests used:
Assay in all cases: Experiment on weeding effect in post-emergence stage
Type in all cases: in vivo
Conditions in all cases: dose 15 g a.i./ha, fresh weight control rate level
Eleusine indica = system: Eleusine indica
From the text: (§1) Experiment on weeding effect in post-emergence stage:
(§2) Monocotyledonous and dicotyledonous weed seeds (Descurainia sophia, Capsella bursa-pastoris, Abutilon theophrasti, Galium aparine, Stellaria media, Lithospermum arvense, Rorippa indica, Alopecurus aequalis, Alopecurus japonicus, Beckmannia syzigachne, Sclerochloa dura, Conyza Canadensis, Phleum paniculatum, Veronica didyma Tenore, Eleusine indica, Bromus japonicus, Aegilops tauschii, Phalaris arundinacea, Amaranthus retroflexus, Chenopodium album, Commelina communis, Sonchus arvensis, Convolvulus arvensis, Cirsium setosum, Solanum nigrum, Acalypha australis, Digitaria sanguinalis, Echinochloa crusgalli, Setaria viridis, Setaria glauca, Leptochloa chinensis, Monochoria vaginalis, Sagittaria trolia, Scirpus juncoides, Cyperus rotundus, Cyperus iria, Cyperus difformis, Elmbristylis, Portulaca oleracea, Xanthium sibiricum, Pharbitis nil) and major crop seeds (wheat, corn, rice, soybean, cotton, oilseed rape, millet, sorghum, potato, sesame, ricinus) were placed in plastic pots filled with soil, then covered with 0.5-2 cm of soil, allowed to grow in a good greenhouse environment. After 2 weeks of sowing, the test plants were treated in the 2-3 leaf stage. The tested compounds of the present invention were respectively dissolved in acetone, then added with Tween 80 and 1.5 liter/ha of emulsifiable concentrate of methyl oleate as synergist, diluted with a certain amount of water to obtain a solution with a certain concentration, and sprayed with a spray tower onto the plants. After the application, the plants were cultured for 3 weeks in the greenhouse, and then the experimental results of the weeding were counted. The doses of the used compounds were 500, 250, 125, 60, 15 g a.i./ha, and the averages were obtained by repeating for three times.

Galium aparine = system: Galium aparine
From the text: as §1, §2

Digitaria sanguinalis = system: Digitaria sanguinalis
From the text: as §1, §2

Leptochloa chinensis = system: Leptochloa chinensis
From the text: as §1, §2

Echinochloa crusgalli = system: Echinochloa crusgalli
From the text: as §1, §2

Veronica didyma Tenore = system: Veronica didyma Tenore
From the text: as §1, §2

Abutilon theophrasti = system: Abutilon theophrasti
From the text: as §1, §2

Amaranthus retroflexus = system: Amaranthus retroflexus
From the text: as §1, §2

Setaria viridis = system: Setaria viridis
From the text: as §1, §2

Row | SMILES | weeding effect in post-emergence stage, Eleusine indica (level) (Eleusine indica) | weeding effect in post-emergence stage, Galium aparine (level) (Galium aparine) | weeding effect in post-emergence stage, Digitaria sanguinalis (level) (Digitaria sanguinalis) | weeding effect in post-emergence stage, Leptochloa chinensis (level) (Leptochloa chinensis) | weeding effect in post-emergence stage, Echinochloa crusgalli (level) (Echinochloa crusgalli) | weeding effect in post-emergence stage, Veronica didyma Tenore (level) (Veronica didyma Tenore) | weeding effect in post-emergence stage, Abutilon theophrasti (level) (Abutilon theophrasti) | weeding effect in post-emergence stage, Amaranthus retroflexus (level) (Amaranthus retroflexus) | weeding effect in post-emergence stage, Setaria viridis (level) (Setaria viridis)
1 | Cc1ccc(C=NOC(=O)C2(C)CC(c3cc(-n4c(=O)n(C)c(=S)n(C)c4=O)c(F)cc3Cl)=NO2)s1 (mixture of isomers) [Compound 118] | 5 (Level 5: growth control rate is above 85%) | 5 (Level 5: growth control rate is above 85%) | 5 (Level 5: growth control rate is above 85%) | 5 (Level 5: growth control rate is above 85%) | 5 (Level 5: growth control rate is above 85%) | 5 (Level 5: growth control rate is above 85%) | 5 (Level 5: growth control rate is above 85%) | 5 (Level 5: growth control rate is above 85%) | 5 (Level 5: growth control rate is above 85%)
2 | CCOC(C)=NOC(=O)C1(C)CC(c2cc(-n3c(=O)n(C)c(=S)n(C)c3=O)c(F)cc2Cl)=NO1 (mixture of isomers) [Compound 120] | 5 (Level 5: growth control rate is above 85%) | 5 (Level 5: growth control rate is above 85%) | 5 (Level 5: growth control rate is above 85%) | 5 (Level 5: growth control rate is above 85%) | 5 (Level 5: growth control rate is above 85%) | 5 (Level 5: growth control rate is above 85%) | 5 (Level 5: growth control rate is above 85%) | 5 (Level 5: growth control rate is above 85%) | 5 (Level 5: growth control rate is above 85%)
3 | COCC(C)=NOC(=O)C1(C)CC(c2cc(-n3c(=O)n(C)c(=S)n(C)c3=O)c(F)cc2Cl)=NO1 (mixture of isomers) [Compound 121] | 5 (Level 5: growth control rate is above 85%) | 5 (Level 5: growth control rate is above 85%) | 5 (Level 5: growth control rate is above 85%) | 5 (Level 5: growth control rate is above 85%) | 5 (Level 5: growth control rate is above 85%) | 5 (Level 5: growth control rate is above 85%) | 5 (Level 5: growth control rate is above 85%) | 5 (Level 5: growth control rate is above 85%) | 5 (Level 5: growth control rate is above 85%)
4 | CC(C)=NOC(=O)C1(C)CC(c2nc(-n3c(=O)n(C)c(=S)n(C)c3=O)c(F)cc2Cl)=NO1 (racemic) [Compound 16] | 5 (Level 5: growth control rate is above 85%) | 5 (Level 5: growth control rate is above 85%) | 5 (Level 5: growth control rate is above 85%) | 5 (Level 5: growth control rate is above 85%) | 5 (Level 5: growth control rate is above 85%) | 5 (Level 5: growth control rate is above 85%) | 5 (Level 5: growth control rate is above 85%) | 5 (Level 5: growth control rate is above 85%) | 5 (Level 5: growth control rate is above 85%)
5 | CCC(CC)=NOC(=O)C1(C)CC(c2cc(-n3c(=O)n(C)c(=S)n(C)c3=O)c(F)cc2Cl)=NO1 (racemic) [Compound 83] | 5 (Level 5: growth control rate is above 85%) | 5 (Level 5: growth control rate is above 85%) | 5 (Level 5: growth control rate is above 85%) | 5 (Level 5: growth control rate is above 85%) | 5 (Level 5: growth control rate is above 85%) | 5 (Level 5: growth control rate is above 85%) | 5 (Level 5: growth control rate is above 85%) | 5 (Level 5: growth control rate is above 85%) | 5 (Level 5: growth control rate is above 85%)
6 | CC(C)=NOC(=O)C1(C)CC(c2cc(-n3c(=O)n(C)c(=S)n(C)c3=O)c(F)cc2Cl)=NO1 (stereo not drawn) [Compound 10] | 5 (Level 5: growth control rate is above 85%) | 5 (Level 5: growth control rate is above 85%) | 5 (Level 5: growth control rate is above 85%) | 5 (Level 5: growth control rate is above 85%) | 5 (Level 5: growth control rate is above 85%) | 5 (Level 5: growth control rate is above 85%) | 5 (Level 5: growth control rate is above 85%) | 5 (Level 5: growth control rate is above 85%) | 5 (Level 5: growth control rate is above 85%)
7 | C/C=N/OC(=O)C1(C)CC(c2cc(-n3c(=O)n(C)c(=S)n(C)c3=S)c(F)cc2Cl)=NO1 (stereo not drawn) [Compound 54] | 5 (Level 5: growth control rate is above 85%) | 5 (Level 5: growth control rate is above 85%) | 5 (Level 5: growth control rate is above 85%) | 5 (Level 5: growth control rate is above 85%) | 5 (Level 5: growth control rate is above 85%) | 5 (Level 5: growth control rate is above 85%) | 5 (Level 5: growth control rate is above 85%) | 5 (Level 5: growth control rate is above 85%) | 5 (Level 5: growth control rate is above 85%)
8 | CC(C)=NOC(=O)C1(C)CC(c2cc(-n3c(=O)n(C)c(=S)n(C)c3=S)c(F)cc2Cl)=NO1 (stereo not drawn) [Compound 56] | 5 (Level 5: growth control rate is above 85%) | 5 (Level 5: growth control rate is above 85%) | 5 (Level 5: growth control rate is above 85%) | 5 (Level 5: growth control rate is above 85%) | 5 (Level 5: growth control rate is above 85%) | 5 (Level 5: growth control rate is above 85%) | 5 (Level 5: growth control rate is above 85%) | 5 (Level 5: growth control rate is above 85%) | 5 (Level 5: growth control rate is above 85%)
9 | CC/C(C)=N/OC(=O)C1(C)CC(c2cc(-n3c(=O)n(C)c(=S)n(C)c3=S)c(F)cc2Cl)=NO1 (stereo not drawn) [Compound 57] | 5 (Level 5: growth control rate is above 85%) | 5 (Level 5: growth control rate is above 85%) | 5 (Level 5: growth control rate is above 85%) | 5 (Level 5: growth control rate is above 85%) | 5 (Level 5: growth control rate is above 85%) | 5 (Level 5: growth control rate is above 85%) | 5 (Level 5: growth control rate is above 85%) | 5 (Level 5: growth control rate is above 85%) | 5 (Level 5: growth control rate is above 85%)

Reference: patent US20230072860A1, “ISOXAZOLINE OXIME FORMATE COMPOUND, PREPARATION METHOD THEREFOR, HERBICIDAL COMPOSITION AND USE THEREOF” (QINGDAO KINGAGROOT CHEMICAL COMPOUND CO., LTD., priority 2020, published 2023)
